Measurements: US9073855B2, “BCL-2 selective apoptosis-inducing agents for the treatment of cancer and immune diseases” (AbbVie Inc., priority 2008, dated 2015)

Legend:
[1] = test system: Canine platelets; assay: Platelet cell viability assay (platelet-rich plasma, Cell Titer Glo); type: cell-based; conditions: Canis lupus familiaris, 5 h, isolated canine platelets ex vivo, five hours at 37° C.
Method in brief: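 Isolated canine platelets were incubated ex vivo with a range of compound concentrations. After 20 min equilibration at room temperature, viability was measured by Cell Titer Glo luminescence.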

[2] = target: GST-Bcl-2 (Homo sapiens, UniProt P10415); assay: TR-FRET binding assay, GST-Bcl-2 with F-Bak peptide probe; conditions: TR-FRET Binding Affinity, GST-Bcl-2, F-Bak peptide probe
Chain of GST-Bcl-2 (P10415 whole entry): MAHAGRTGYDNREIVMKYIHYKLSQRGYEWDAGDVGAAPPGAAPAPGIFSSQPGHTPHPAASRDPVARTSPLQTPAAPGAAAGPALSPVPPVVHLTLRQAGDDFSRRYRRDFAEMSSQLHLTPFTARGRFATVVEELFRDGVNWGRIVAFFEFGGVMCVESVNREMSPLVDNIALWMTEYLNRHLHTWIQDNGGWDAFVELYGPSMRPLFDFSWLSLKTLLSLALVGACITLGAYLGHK
Method in brief: (§1)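 Displacement of a fluorescein-labelled Bak peptide from the GST-tagged protein was followed by time-resolved FRET with a terbium anti-GST donor after 3 h incubation at room temperature. Inhibition constants were calculated with Wang's equation.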

[3] = test system: FL5.12/Bcl-2 cells; assay: FL5.12/Bcl-2 cell viability assay under IL-3 withdrawal (CellTitre Glo); type: cell-based, murine; conditions: Mus musculus, IL-3 withdrawn 48 hrs, then 24 hrs with compound
Method in brief: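 Viability measured with CellTiter-Glo after 24 h compound treatment at various concentrations, following 48 h IL-3 withdrawal (no WEHI-3B medium). Cells: prolymphocytic mouse FL5.12 line stably transfected to overexpress Bcl-2, cultured at 37 °C, 5% CO2.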

[4] = target: GST-Bcl-XL (Homo sapiens, UniProt Q07817); assay: TR-FRET binding assay, GST-Bcl-XL with F-Bak peptide probe; conditions: TR-FRET Binding Affinity, GST-Bcl-XL, F-Bak peptide probe
Chain of GST-Bcl-XL (Q07817 whole entry): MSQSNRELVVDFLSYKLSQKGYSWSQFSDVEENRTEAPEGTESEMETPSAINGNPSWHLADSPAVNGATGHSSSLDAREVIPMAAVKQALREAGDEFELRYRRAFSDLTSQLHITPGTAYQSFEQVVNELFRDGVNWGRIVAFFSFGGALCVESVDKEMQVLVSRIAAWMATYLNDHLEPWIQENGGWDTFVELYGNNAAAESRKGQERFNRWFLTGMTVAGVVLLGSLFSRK
Method in brief: as §1

SMILES | EC50 [1] [nM] | Ki [2] [nM] | EC50 [3] [nM] | Ki [4] [nM]
CN(C)CCOc1ccc(-c2ccc(Cl)cc2)c(CN2CCN(c3ccc(C(=O)NS(=O)(=O)c4ccc(NCC5CCOCC5)c([N+](=O)[O-])c4)c(Oc4ccc5[nH]ccc5c4)c3)CC2)c1 [Example 126, 4-[4-({4′-chloro-4-[2-(dimethylamino)ethoxy]-1,1′-biphenyl-2-yl}methyl)piperazin-1-yl]-2-(1H-indol-5-yloxy)-N-({3-nitro-4-[(tetrahydro-2H-pyran-4-ylmethyl)amino]phenyl}sulfonyl)benzamide] | > 50000 | 0.012 | 31 | 163
CN1CCC(Nc2ccc(S(=O)(=O)NC(=O)c3ccc(N4CCN(CC5=C(c6ccc(Cl)cc6)CCCCC5)CC4)cc3Oc3ccc4[nH]ccc4c3)cc2[N+](=O)[O-])CC1 [Example 151, 4-(4-{[2-(4-chlorophenyl)cyclohept-1-en-1-yl]methyl}piperazin-1-yl)-2-(1H-indol-5-yloxy)-N-({4-[(1-methylpiperidin-4-yl)amino]-3-nitrophenyl}sulfonyl)benzamide] | 31400 | 0.162 | 49 | > 660
CN1CCC(Nc2ccc(S(=O)(=O)NC(=O)c3ccc(N4CCN(CC5=C(c6ccc(Cl)cc6)CC(C)(C)CC5)CC4)cc3Oc3ccc4[nH]ncc4c3)cc2[N+](=O)[O-])CC1 [Example 21, 4-(4-{[2-(4-chlorophenyl)-4,4-dimethylcyclohex-1-en-1-yl]methyl}piperazin-1-yl)-2-(1H-indazol-5-yloxy)-N-({4-[(1-methylpiperidin-4-yl)amino]-3-nitrophenyl}sulfonyl)benzamide] | > 50000 | 5.43 | 1010 | 190
CN(C)CCCNc1ccc(S(=O)(=O)NC(=O)c2ccc(N3CCN(CC4=C(c5ccc(Cl)cc5)CC(C)(C)CC4)CC3)cc2Oc2ccc3[nH]ccc3c2)cc1[N+](=O)[O-] [Example 53, 4-(4-{[2-(4-chlorophenyl)-4,4-dimethylcyclohex-1-en-1-yl]methyl}piperazin-1-yl)-N-[(4-{[3-(dimethylamino)propyl]amino}-3-nitrophenyl)sulfonyl]-2-(1H-indol-5-yloxy)benzamide] | 18300 | 0.081 | 11 | 4.85
CN1CCC(Nc2ccc(S(=O)(=O)NC(=O)c3ccc(N4CCN(CC5=C(c6ccc(Cl)cc6)CC(C)(C)OC5)CC4)cc3Oc3cccc4[nH]ccc34)cc2[N+](=O)[O-])CC1 [Example 145, 4-(4-{[4-(4-chlorophenyl)-6,6-dimethyl-5,6-dihydro-2H-pyran-3-yl]methyl}piperazin-1-yl)-2-(1H-indol-4-yloxy)-N-({4-[(1-methylpiperidin-4-yl)amino]-3-nitrophenyl}sulfonyl)benzamide] | 3210 | 0.03 | 4 | 12
CN1CCC(Nc2ccc(S(=O)(=O)NC(=O)c3ccc(N4CCN(CC5=C(c6ccc(Cl)cc6)CC(C)(C)OC5)CC4)cc3Oc3ccc4[nH]ccc4c3)cc2[N+](=O)[O-])CC1 [Example 150, 4-(4-{[4-(4-chlorophenyl)-6,6-dimethyl-5,6-dihydro-2H-pyran-3-yl]methyl}piperazin-1-yl)-2-(1H-indol-5-yloxy)-N-({4-[(1-methylpiperidin-4-yl)amino]-3-nitrophenyl}sulfonyl)benzamide] | 2900 | 0.014 | 6 | 9.34
CN(C)CCCNc1ccc(S(=O)(=O)NC(=O)c2ccc(N3CCN(Cc4ccccc4-c4ccc(Cl)cc4)CC3)cc2Oc2ccccc2)cc1[N+](=O)[O-] [Example 154, 4-{4-[(4′-chloro-1,1′-biphenyl-2-yl)methyl]piperazin-1-yl}-N-[(4-{[3-(dimethylamino)propyl]amino}-3-nitrophenyl)sulfonyl]-2-phenoxybenzamide] | 29000 | 0.133 | 85 | 5.38
O=C(NS(=O)(=O)c1ccc(NCC2CCOCC2)c([N+](=O)[O-])c1)c1ccc(N2CCN(Cc3c(OCCN4CCOCC4)cccc3-c3ccc(Cl)cc3)CC2)cc1Oc1cccc2[nH]ccc12 [Example 131, 4-(4-{[4′-chloro-3-(2-morpholin-4-ylethoxy)-1,1′-biphenyl-2-yl]methyl}piperazin-1-yl)-2-(1H-indol-4-yloxy)-N-({3-nitro-4-[(tetrahydro-2H-pyran-4-ylmethyl)amino]phenyl}sulfonyl)benzamide] | > 50000 | 0.106 | 31 | 243
CN1CCN(CCCNc2ccc(S(=O)(=O)NC(=O)c3ccc(N4CCN(Cc5ccccc5-c5ccc(Cl)cc5)CC4)cc3Oc3ccccc3)cc2[N+](=O)[O-])CC1 [Example 86, 4-{4-[(4′-chloro-1,1′-biphenyl-2-yl)methyl]piperazin-1-yl}-N-[(4-{[3-(4-methylpiperazin-1-yl)propyl]amino}-3-nitrophenyl)sulfonyl]-2-phenoxybenzamide] | 36300 | 0.212 | 74 | 10.5
O=C(NS(=O)(=O)c1ccc(NCC2CCOCC2)c([N+](=O)[O-])c1)c1ccc(N2CCN(Cc3c(OCCN4CCOCC4)cccc3-c3ccc(Cl)cc3)CC2)cc1Oc1ccc2[nH]ccc2c1 [Example 132, 4-(4-{[4′-chloro-3-(2-morpholin-4-ylethoxy)-1,1′-biphenyl-2-yl]methyl}piperazin-1-yl)-2-(1H-indol-5-yloxy)-N-({3-nitro-4-[(tetrahydro-2H-pyran-4-ylmethyl)amino]phenyl}sulfonyl)benzamide] | > 50000 | 0.553 | 42 | 315
CN(C)CCOc1ccc(-c2ccc(Cl)cc2)c(CN2CCN(c3ccc(C(=O)NS(=O)(=O)c4ccc(NC5CCN(CC(F)(F)F)CC5)c([N+](=O)[O-])c4)c(Oc4ccccc4)c3)CC2)c1 [Example 137, 4-[4-({4′-chloro-4-[2-(dimethylamino)ethoxy]-1,1′-biphenyl-2-yl}methyl)piperazin-1-yl]-N-[(3-nitro-4-{[1-(2,2,2-trifluoroethyl)piperidin-4-yl]amino}phenyl)sulfonyl]-2-phenoxybenzamide] | > 50000 | 0.305 | 281 | 16
O=C(NS(=O)(=O)c1ccc(NCCCN2CCCC2)c([N+](=O)[O-])c1)c1ccc(N2CCN(Cc3cc(OCCN4CCOCC4)ccc3-c3ccc(Cl)cc3)CC2)cc1Oc1ccc2[nH]ccc2c1 [Example 136, 4-(4-{[4′-chloro-4-(2-morpholin-4-ylethoxy)-1,1′-biphenyl-2-yl]methyl}piperazin-1-yl)-2-(1H-indol-5-yloxy)-N-({3-nitro-4-[(3-pyrrolidin-1-ylpropyl)amino]phenyl}sulfonyl)benzamide] | > 50000 | 0.259 | 190 | 61.9
CN(C)CCOc1ccc(-c2ccc(Cl)cc2)c(CN2CCN(c3ccc(C(=O)NS(=O)(=O)c4ccc(NCCCN5CCCC5)c([N+](=O)[O-])c4)c(Oc4ccc5[nH]ccc5c4)c3)CC2)c1 [Example 135, 4-[4-({4′-chloro-4-[2-(dimethylamino)ethoxy]-1,1′-biphenyl-2-yl}methyl)piperazin-1-yl]-2-(1H-indol-5-yloxy)-N-({3-nitro-4-[(3-pyrrolidin-1-ylpropyl)amino]phenyl}sulfonyl)benzamide] | 4550 | 0.008 | 42 | 6.24
